Source: a melting point compilation (Tetko et al.; mined from patent text by program, amines drawn as free bases though some values may be those of a salt)

Compound	melting point [°C]
CC(C)(C)OC(=O)C[C@@H](CC1CCCC1)C(=O)N1CCCCC1	38 to 40
Cc1cccc(OCCO)c1	76 to 78
CCC=C1C([N+](=O)[O-])C2SCCCN2C(=O)N1C (stereo not given)	155 to 156
O=C(NCc1ncc(O)c2ccccc12)c1ccccc1	130 to 131
Cc1oc(-c2ccccc2)nc1COc1cncc(COc2cccc(CC(=O)O)c2)c1	143 to 144
CCOC(=O)c1ccc2cc(N=[N+]=[N-])ccn2c1=O	145 to 150
CCOC(=O)C1=C(C)NN=C(CC)C1c1ccccc1 (stereo not given)	109
CCCNC(=O)[C@H]1CN(c2ccc(N3CCOCC3)c(F)c2)C(=O)O1	165 to 167
CSc1ccc(Br)c2c1C1=NOCC1C2 (stereo not given)	127 to 135
C#Cc1cccc(Nc2ncnc3cnc(NCc4ccc(OC)cc4)cc23)c1	200 to 203
CC(C)S(=O)(=O)NCc1ccc2ccn(C3CCN(CCc4ccc(F)cc4)CC3)c2c1	90 to 92
CCc1cn(C2CC(O)(C(C)=O)C(CO)O2)c(=O)[nH]c1=O (stereo not given)	150
COC(=O)C1(C)CN(C(=O)Nc2c(C)noc2C)N=C1c1ccc(Cl)cc1 (stereo not given)	214 to 216
COc1ccccc1C(=O)N(c1ccccc1)c1ccc(OCCN(C)C)cc1	82.5 to 85.5
COC1=C(C#N)C(c2ccccc2)=C2C(=O)N(C)C(c3ccccc3)=C12	210 to 212
NC(=O)c1ncn2c1[C@@H]1CCN1C(=O)c1ccccc1-2	228 to 230
COc1ccc(C(=O)c2cccc3[nH]ccc23)cc1	148 to 152
Cc1cc(C(=O)C2=NOC(c3cc(Cl)cc(Cl)c3)(C(F)(F)F)C2)ccc1S(=O)(=O)NCc1ccccn1 (stereo not given)	57 to 58
CN(c1cc(Cl)ncn1)n1cccc1	88 to 89
COC(=O)C1(CN2CCC(Cc3ccc(F)cc3)CC2)CC(c2ccc3[nH]c(=O)oc3c2)=NO1 (stereo not given)	146 to 155
CCOc1cc(C(C#N)N2C(=O)c3cccc([N+](=O)[O-])c3C2=O)ccc1OC (stereo not given)	155 to 157
CC1(C)Oc2cc(C(=O)O)sc2[C@@H](N2CCCCC2=O)[C@@H]1O (relative stereo)	268 to 270
CC(C)Cn1c(=O)n(C)c(=O)c2cc(Cc3cccc(F)c3)sc21	76 to 78

Compound	melting point [°C]
O=C1NC(=O)C(Cc2ccc3cc(OCc4ccccc4)ccc3n2)S1 (stereo not given)	144 to 146
CCOC(=O)c1c(-c2ccccc2)nc2c(C(F)(F)F)cccc2c1O	114
CN1C[C@H](CCN2CCN(C(c3ccccc3)c3ccccc3)CC2)C=C2c3cccc4[nH]cc(c34)C[C@H]21	165 to 169
CCCCCCNC(=O)NCCCCl	48 to 50
CC12CCC(CC1=C=C1C=CC(Nc3nc(Cl)nc(NC4=CCC(=C=C5CC6CCC5(C)C6(C)C)C=C4)n3)=CC1)C2(C)C	221
O=C(O)C1CCN(C(=O)NS(=O)(=O)C=Cc2ccccc2)CC1	179 to 181
O=C(O)CCC(O)c1ccc(-c2ccccc2F)cc1 (stereo not given)	174 to 175
CCCc1nc(C(C)(C)O)c(C(=O)OCC)n1Cc1ccc(-c2ccccc2C(N)=O)cc1	148 to 151
Oc1ccc(-c2cc3cc(O)ccc3o2)c(Br)c1	195
O=C1Nc2ccccc2CCC1N1C(=O)c2ccccc2C1=O (stereo not given)	261 to 263
COc1cc(C(=O)NS(=O)(=O)c2ccccc2C)ccc1Cc1cn(C(C)C)c2ccc(CCCC(=O)N(C)C)cc12	60
COc1cc(COc2nn(-c3ccccc3)cc2CC(=O)N2CCOCC2)ccc1OCc1nc(-c2ccco2)oc1C	132 to 133
Cc1ccc(C2(O)CCN(CCCc3nnc4n3CCCCC4)CC2)cc1	160 to 161
COP(=O)(OC)C1CC(c2ccc([N+](=O)[O-])cc2)=NO1 (stereo not given)	156 to 158
OC(CNCCNc1ncnc2nc[nH]c12)COc1ccccc1 (stereo not given)	169 to 170
Clc1ccc(OCOCOc2ccc(Cl)cc2)cc1	53.5 to 54
O=C(O)c1ccc2sc(Cc3cccnc3)cc2c1	246 to 249
CC(CSC(=S)N(C)C)[N+](=O)[O-] (stereo not given)	38.5 to 41
COC(Cc1cc(C)c(OCCc2nc(C(C)(C)C)oc2C)c(C)c1)C(=O)O (stereo not given)	78 to 80
CCN1CCOc2cc(Nc3ncc(Cl)c(Nc4ccccc4C(=O)NC)n3)ccc2C1=O	215 to 220
OC(Cc1nnccc1-c1c(-c2ccccc2)nn2ccccc12)C(Cl)(Cl)Cl (stereo not given)	206 to 207
CCOC(=O)c1ccc([N+](=O)[O-])cc1C	71 to 72
CCC1(O)CC(=O)OCc2c1cc1n(c2=O)Cc2c-1nc1ccccc1c2Cc1ccccc1 (stereo not given)	> 250

More lines, now with the values ahead:

melting point [°C]	Compound
117 to 119	COc1ccc(N(Cc2cccnc2)S(C)(=O)=O)c(OC)c1
151 to 153	CC(=O)Nc1cc(O)ccc1Oc1ccccc1
126 to 127	COC(=O)c1ccc(-c2noc(C(F)(F)F)n2)s1
170 to 174	CCC(=O)N1CCC(NC(=O)Nc2c(Cl)cccc2Cl)CC1
81 to 83	Cc1ccc(C(=O)N[C@H](CSCC(=O)OC(C)(C)C)CC(C)C)s1
88.2 to 89.5	CC1=C(C(O)c2ccc3c(c2)CN(C(N)=O)CC3)C(C)(C)CCC1 (stereo not given)
196 to 198	Cc1nc(-n2ccc(OCC3CCCC3)cc2=O)sc1C(=O)NCc1ccccc1
212 to 215	O=C(NC(=O)c1c(Cl)cccc1Cl)Nc1noc2ccccc12
156 to 158	C/C(=N\O)c1cccc(-c2nc3sccn3c2-c2ccnc(N[C@@H]3CCCN(S(=O)(=O)c4ccc(Cl)cc4)C3)n2)c1
65 to 66	CC(C)c1nc(CN(C(=O)N[C@H](C(=O)N[C@@H](Cc2ccccc2)C[C@H](O)[C@H](Cc2ccccc2)NC(=O)OCc2cncs2)C(C)C)C2CC2)cs1
147 to 149	COC(=O)CCCC#Cc1cc(Cl)ccc1NS(=O)(=O)c1sc(NC(C)=O)nc1C
183	Cc1cccc(-c2nc3c(C)cccn3c2-c2ccnc(-c3ccc(OCC(N)=O)cc3)c2)n1
70 to 71	O=C(CCCN1CCCCC1)c1ccc2oc3ccc(C(=O)CCCN4CCCCC4)cc3c2c1
280 to 282	COc1cc2c(O)c3c(c(-c4ccc5c(c4)OCO5)c2cc1OC)C(=O)OC3
167	Cc1cc(OC2CN(C(=O)c3nnc(-c4ccccc4)o3)C2)ccc1CN1CCC(C)(CO)CC1
264	O=C1c2cccc(O)c2C(=O)c2sc(-c3ccccc3)nc21
134 to 136	CCOC(=O)[C@@](C)(C#N)[C@@H](c1ccccc1OC)c1cccc2ccccc12
149 to 150	Cc1cccc(CCN2CCC[C@H](C(C#N)(c3ccccc3)c3ccccc3)C2)c1
> 112	CN(C)c1nc(N)nc2c1sc(=O)n2C1OC(CO)C(O)C1O (stereo not given)
266 to 271	O=C1NC(=O)[C@@]2(C[C@@H](C(=O)NCCO[N+](=O)[O-])Oc3ccc(F)cc32)N1
175 to 179	C[C@@H](N[C@@H](Cc1c[nH]cn1)C(=O)O)[C@H](NC(=O)[C@@H](N)CCCCN)C(=O)O
262 to 263	Cc1cc(CC(=O)O)ccc1NC(=O)Nc1ccccc1C(F)(F)F
147 to 150	Cc1cccc(C)c1CCC(CCc1c[nH]cn1)CCc1c(C)cccc1C
205 to 206	CO[C@@H](CCc1nc(-c2ccccc2)oc1C)c1ccc(C=C2SC(=O)NC2=O)cc1
67 to 69	CC(C)(C)c1cc(OCCCC#N)cc(C(C)(C)C)c1O

melting point [°C]	Compound
148 to 149	Cc1ccc(S(=O)(=O)NCC(NS(=O)(=O)c2ccc(C)cc2)c2ccccc2)cc1 (stereo not given)
71	Cc1cccc(-c2nc3ccc(OCCN(C)C)cc3n2Cc2ccccc2Br)c1
85 to 87	CCOC(=O)OC1Oc2ccc(OS(C)(=O)=O)cc2C1(C)C (stereo not given)
157 to 159	COc1nc(-c2ccc(Cl)cc2)nc(Cl)c1Cl
95 to 97	COc1cc(C)c(C(=O)O)c(OC)c1OC
285	O=C1c2ccc3c4cccc5cccc(c6ccc(c2c36)C(=O)N1C1CCCCCCCCCCC1)c54
135	COc1cc(-c2ccn(C)n2)cc2oc(=O)c(C)c(C)c12
91	CCCCCCCCCCCCCc1nnc(C=Cc2ncc([N+](=O)[O-])n2C)s1
207 to 209	CC1(c2ccc(Oc3nc4ccc(Cl)cc4s3)cc2)OC(=O)N(Nc2ccccc2)C1=O (stereo not given)
104 to 105	CCOP(=O)(OCC)C(CC(C(=O)Nc1ccccn1)C(=O)c1ccccc1)P(=O)(OCC)OCC (stereo not given)
149 to 150	N#CCCn1nc(O)nc1Cl
222 to 224	CC(C)(C)c1ccc(S(=O)(=O)Nc2nc(-c3ncccn3)nc(OCCOc3ncc(Br)cn3)c2-c2cccs2)cc1
112 to 113	COc1cc2ccc(CCOS(C)(=O)=O)cc2cc1OC
159 to 161	Nc1nc2ccccc2c2c1ncn2CCCCNC(=O)c1ccc(C(=O)c2ccccc2)cc1
135 to 138	Cc1ccc2c(NCc3ccc(NC(=O)c4ccc(F)cc4)cc3)nc(NC3CCN(Cc4ccccc4)CC3)nc2c1
72 to 73	CC(=O)NCCc1ccc(CO)cc1
129 to 130	C=C(C)COc1cc(C)c(NC(=O)CC(C)(C)C)c(C)c1Cc1ccc(C(C)C)cc1
117 to 122	Cc1c2ccccc2c(-c2cc(Br)c(OC(Cc3ccccc3)C(=O)O)c(Br)c2)c2c1sc1ccccc12 (stereo not given)
94 to 96	CCOC(=O)c1cc(-n2c(OCC)nc(C(F)(F)F)cc2=O)c(F)cc1Cl
112 to 114	CC(C(=O)O)c1ccc(N2CC(O)C(O)C2)c(Cl)c1 (stereo not given)
139 to 142	O=C(O)C1=NOC2(CCC(C3CCCCC3)CC2)C1 (stereo not given)
169 to 170	O=C(OCc1ccccc1)c1cc2c3ccccc3n(Cc3ccccc3)c2cn1
80 to 81	CC(=O)c1ccc2ccccc2c1OC(F)F
184 to 186	COc1ccc(S(=O)(=O)N2C(=O)C(O[Si](C)(C)C)(c3ccccc3F)c3cc(Cl)ccc32)c(OC)c1 (stereo not given)
